This is an account of results in patent US20260042764A1, “COMPOSITIONS AND METHODS FOR INHIBITION OF KRAS” (TheRas, Inc., priority 2022, published 2026).

Test [1] has as its target T1, Avi-KRAS G12R (1-169) GppNHp/RAF1 RBD-3xFLAG (52-151) (Homo sapiens, UniProt P01116, G12R).
T1 construct: Avi-KRAS G12R (1-169)
The experiment in a line: Raf1-KRAS G12R-GppNHP disruption HTRF assay (Biological Example 1). It is filed as binding. The settings on record: KRAS G12R-GppNHp/RAF1 RBD HTRF. An outline of the steps: (§1)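 Percent activity versus DMSO (100%) was derived from HTRF signal after KRAS–RAF1 RBD protein mix was incubated 1 h at room temperature with shaking and detection reagents were added for a further 1 h.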
A general note: TR-FRET usually uses a lanthanide donor and a delayed reading to cut background.

In test [2] the target is T2, Avi-KRAS G12D (1-169) GppNHp/RAF1 RBD-3xFLAG (52-151) (Homo sapiens, UniProt P01116, G12D).
T2 construct: Avi-KRAS G12D (1-169)
The experiment in a line: Raf1-KRAS G12D-GppNHP disruption HTRF assay (Biological Example 1). It is filed as binding. The conditions noted are these: KRAS G12D-GppNHp/RAF1 RBD HTRF. The gist of the method:
as §1

In test [3] the target is T3, Avi-KRAS G12V (1-169) GppNHp/RAF1 RBD-3xFLAG (52-151) (Homo sapiens, UniProt P01116, G12V).
T3 construct: Avi-KRAS G12V (1-169)
The experiment in a line: Raf1-KRAS G12V-GppNHP disruption HTRF assay (Biological Example 1). It is filed as binding. The conditions noted are these: KRAS G12V-GppNHp/RAF1 RBD HTRF. An outline of the steps:
as §1

For test [4], the target named is T4, Avi-KRAS WT (1-169) GppNHp/RAF1 RBD-3xFLAG (52-151) (Homo sapiens, UniProt P01116).
T4 construct: Avi-KRAS WT (1-169)
The experiment in a line: Raf1-KRAS WT-GppNHP disruption HTRF assay (Biological Example 1). Format: binding. The settings on record: KRAS WT-GppNHp/RAF1 RBD HTRF. An outline of the steps: as §1

Test [5] has as its system SW620 cells (KRAS G12V). The test is described as follows: Cell-based pERK HTRF assay in SW620 cell (Biological Example 4). The conditions noted are these: Homo sapiens, SW-620, SW620 (KRAS G12V) cells, pERK HTRF. The gist of the method:
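In SW620 cells grown in RPMI with 10% FBS, a 4 h compound treatment (0.25% DMSO, 9-point curve from 1 μM) preceded lysis. Phospho-ERK levels were then read by time-resolved FRET at 615 nm emission.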

Test [6] deals with GP2d cells (KRAS G12D). The experiment in a line: Cell-based pERK HTRF assay in GP2d cell (Biological Example 2). The settings on record: GP2d, GP2d (KRAS G12D) cells, pERK HTRF. The gist of the method:
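60 min compound, 0.25% DMSO, 9-pt half-log curve from 1 μM or 100 nM; DMEM/10% FBS.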

T3 sequence (P01116 1-169 isoform P01116-2 G12V): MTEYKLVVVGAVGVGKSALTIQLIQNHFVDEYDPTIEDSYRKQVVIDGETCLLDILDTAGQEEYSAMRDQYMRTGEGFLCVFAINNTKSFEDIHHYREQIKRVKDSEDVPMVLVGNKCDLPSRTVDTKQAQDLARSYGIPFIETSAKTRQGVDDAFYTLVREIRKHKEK
T2 sequence (P01116 1-169 isoform P01116-2 G12D): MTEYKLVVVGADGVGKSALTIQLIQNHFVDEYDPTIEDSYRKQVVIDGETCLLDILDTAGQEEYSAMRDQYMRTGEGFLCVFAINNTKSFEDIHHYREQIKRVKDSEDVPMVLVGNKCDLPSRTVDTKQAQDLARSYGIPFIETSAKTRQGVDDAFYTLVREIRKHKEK
T4 sequence (P01116 1-169 isoform P01116-2): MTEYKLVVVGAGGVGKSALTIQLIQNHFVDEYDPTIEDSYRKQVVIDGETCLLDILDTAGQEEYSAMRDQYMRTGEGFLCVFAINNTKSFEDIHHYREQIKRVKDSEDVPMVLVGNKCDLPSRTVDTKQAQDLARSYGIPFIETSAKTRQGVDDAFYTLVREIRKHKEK
T1 sequence (P01116 1-169 isoform P01116-2 G12R): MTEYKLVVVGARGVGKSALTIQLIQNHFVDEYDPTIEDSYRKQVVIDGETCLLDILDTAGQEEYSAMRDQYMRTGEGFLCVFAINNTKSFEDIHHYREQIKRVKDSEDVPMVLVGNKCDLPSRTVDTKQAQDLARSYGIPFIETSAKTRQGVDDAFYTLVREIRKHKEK

A word on the IC50: it is the point on the concentration scale where inhibition reaches its midpoint. Low values mean greater potency, high ones weaker potency. Consider `CC(=O)N1CC[C@@](C)(N(C)c2nc(OC[C@@]34CCCN3C[C@H](F)C4)nc3c(F)c(-c4ccc(F)c5sc(N)c(C#N)c45)c(C(F)(F)F)cc23)[C@H]1C` [Compound 342], for which the IC50 is 1000 to 10000 nM in test [1]; 1000 to 10000 nM in test [2]; 1000 to 10000 nM in test [3]; 100 to 1000 nM in test [4]; 100 to 1000 nM in test [5]; < 100 nM in test [6].

With `CCC(=O)N1CC[C@@](C)(N(C)c2nc(OC[C@@]34CCCN3C[C@H](F)C4)nc3c(F)c(-c4ccc(F)c5sc(N)c(C#N)c45)c(C(F)(F)F)cc23)[C@H]1C` [Compound 343], the IC50 was > 10000 nM in test [1]; 1000 to 10000 nM in test [2]; 1000 to 10000 nM in test [3]; 1000 to 10000 nM in test [4]; 100 to 1000 nM in test [5]; 100 to 1000 nM in test [6].

`C[C@H]1N(C(=O)C2CC2)CC[C@@]1(C)N(C)c1nc(OC[C@@]23CCCN2C[C@H](F)C3)nc2c(F)c(-c3ccc(F)c4sc(N)c(C#N)c34)c(C(F)(F)F)cc12` [Compound 344]: the IC50 in test [1] was > 10000 nM; in test [2], 1000 to 10000 nM; in test [3], 1000 to 10000 nM; in test [4], 100 to 1000 nM; in test [5], 100 to 1000 nM; in test [6], < 100 nM.

For `CC(C)C(=O)N1CC[C@@](C)(N(C)c2nc(OC[C@@]34CCCN3C[C@H](F)C4)nc3c(F)c(-c4ccc(F)c5sc(N)c(C#N)c45)c(C(F)(F)F)cc23)[C@H]1C` [Compound 345], the 50% inhibitory concentration (IC50) in test [1] is > 10000 nM; in test [2] it was 1000 to 10000 nM; in test [3], > 10000 nM; in test [4] it was 1000 to 10000 nM; in test [5] it was 100 to 1000 nM; in test [6] it was 100 to 1000 nM.

With `CC(=O)N1C[C@H](O)[C@@H](N(C)c2nc(OC[C@@]34CCCN3C[C@H](F)C4)nc3c(F)c(-c4ccc(F)c5sc(N)c(C#N)c45)c(C(F)(F)F)cc23)C1` [Compound 347], the IC50 in test [1] is 100 to 1000 nM; in test [2], < 100 nM; in test [3] it was 100 to 1000 nM; in test [4], 100 to 1000 nM; in test [5], 100 to 1000 nM; in test [6] it was < 100 nM.

Turning to `CCC(=O)N1CC[C@H](N(CC)c2nc(OC[C@@]34CCCN3C[C@H](F)C4)nc3c(F)c(-c4ccc(F)c5sc(N)c(C#N)c45)c(C(F)(F)F)cc23)C1` [Compound 349], the IC50 in test [1] was < 100 nM; in test [2] it was < 100 nM; in test [3] it was 100 to 1000 nM; in test [4] it was 100 to 1000 nM; in test [5] it was < 100 nM; in test [6], < 100 nM.

For `CCN(c1nc(OC[C@@]23CCCN2C[C@H](F)C3)nc2c(F)c(-c3ccc(F)c4sc(N)c(C#N)c34)c(C(F)(F)F)cc12)[C@H]1CCS(=O)(=O)C1` [Compound 350], the IC50 in test [1] is 100 to 1000 nM; in test [2] it was 100 to 1000 nM; in test [3], 100 to 1000 nM; in test [4], 100 to 1000 nM; in test [5], < 100 nM; in test [6], < 100 nM.

As for `CN(c1nc(OC[C@@]23CCCN2C[C@H](F)C3)nc2c(F)c(-c3ccc(F)c4sc(N)c(C#N)c34)c(C(F)(F)F)cc12)C12CC(CO)(C1)C2` [Compound 351], the IC50 in test [1] is 100 to 1000 nM; in test [2], 100 to 1000 nM; in test [3], 1000 to 10000 nM; in test [4] it was 100 to 1000 nM; in test [5], < 100 nM; in test [6], < 100 nM.

On to `Cn1ncc2c1CN(c1nc(OC[C@@]34CCCN3C[C@H](F)C4)nc3c(F)c(-c4ccc(F)c5sc(N)c(C#N)c45)c(C(F)(F)F)cc13)CC2` [Compound 352], for which the IC50 in test [1] is > 10000 nM; in test [2], 1000 to 10000 nM; in test [3] it was > 10000 nM; in test [4] it was > 10000 nM; in test [5], < 100 nM; in test [6], 100 to 1000 nM.

Consider `CN(C)C(=O)c1cnn2c1CN(c1nc(OC[C@@]34CCCN3C[C@H](F)C4)nc3c(F)c(-c4ccc(F)c5sc(N)c(C#N)c45)c(C(F)(F)F)cc13)CC2` [Compound 353], for which the IC50 in test [1] is 1000 to 10000 nM; in test [2], 100 to 1000 nM; in test [3] it was 1000 to 10000 nM; in test [4], 1000 to 10000 nM; in test [5] it was < 100 nM; in test [6], < 100 nM.

Take `N#Cc1c(N)sc2c(F)ccc(-c3c(C(F)(F)F)cc4c(N5CCc6cn[nH]c6C5)nc(OC[C@@]56CCCN5C[C@H](F)C6)nc4c3F)c12` [Compound 354]: the IC50 in test [1] was 1000 to 10000 nM; in test [2], 1000 to 10000 nM; in test [3], > 10000 nM; in test [4], 1000 to 10000 nM; in test [5] it was < 100 nM; in test [6], 100 to 1000 nM.

On to `CN(C)C(=O)c1nc2n(n1)CCN(c1nc(OC[C@@]34CCCN3C[C@H](F)C4)nc3c(F)c(-c4ccc(F)c5sc(N)c(C#N)c45)c(C(F)(F)F)cc13)C2` [Compound 356], for which the IC50 in test [1] was 100 to 1000 nM; in test [2] it was < 100 nM; in test [3] it was 100 to 1000 nM; in test [4], 100 to 1000 nM; in test [5], < 100 nM; in test [6], < 100 nM.

`N#Cc1c(N)sc2c(F)ccc(-c3c(C(F)(F)F)cc4c(N5C6CC5CS(=O)(=O)C6)nc(OC[C@@]56CCCN5C[C@H](F)C6)nc4c3F)c12` [Compound 357]: the IC50 in test [1] was 100 to 1000 nM; in test [2] it was 100 to 1000 nM; in test [3] it was 1000 to 10000 nM; in test [4], 100 to 1000 nM; in test [5], 100 to 1000 nM; in test [6], < 100 nM.

Consider `CC(=O)N1CCN(c2nc(OC[C@@]34CCCN3C[C@H](F)C4)nc3c(F)c(-c4ccc(F)c5sc(N)c(C#N)c45)c(C(F)(F)F)cc23)C2CC21` (stereo partly drawn) [Compound 358], for which the IC50 in test [1] was 1000 to 10000 nM; in test [2], 1000 to 10000 nM; in test [3], 1000 to 10000 nM; in test [4], 1000 to 10000 nM; in test [5], < 100 nM; in test [6] it was < 100 nM.

On to `N#Cc1c(N)sc2c(F)ccc(-c3c(C(F)(F)F)cc4c(N5C[C@H]6C[C@@H]5[C@@H](O)C6)nc(OC[C@@]56CCCN5C[C@H](F)C6)nc4c3F)c12` [Compound 360], for which the IC50 was 1000 to 10000 nM in test [1]; 1000 to 10000 nM in test [2]; 1000 to 10000 nM in test [3]; 1000 to 10000 nM in test [4]; 100 to 1000 nM in test [5]; < 100 nM in test [6].

As for `N#Cc1c(N)sc2c(F)ccc(-c3c(C(F)(F)F)cc4c(N5C[C@H]6C[C@H](O)[C@@H]5C6)nc(OC[C@@]56CCCN5C[C@H](F)C6)nc4c3F)c12` [Compound 361], the IC50 is 100 to 1000 nM in test [1]; 100 to 1000 nM in test [2]; 1000 to 10000 nM in test [3]; 100 to 1000 nM in test [4]; < 100 nM in test [5]; < 100 nM in test [6].

As for `N#Cc1c(N)sc2c(F)ccc(-c3c(C(F)(F)F)cc4c(N5C[C@H]6C[C@@H](O)[C@@H]5C6)nc(OC[C@@]56CCCN5C[C@H](F)C6)nc4c3F)c12` [Compound 362], the IC50 is 100 to 1000 nM in test [1]; 100 to 1000 nM in test [2]; 1000 to 10000 nM in test [3]; 100 to 1000 nM in test [4]; 100 to 1000 nM in test [5]; < 100 nM in test [6].

`N#Cc1c(N)sc2c(F)ccc(-c3c(Cl)cc4c(N5C[C@H]6C[C@@H]5CO6)nc(OC[C@@]56CCCN5C[C@H](F)C6)nc4c3F)c12` [Compound 364]: the IC50 in test [1] was 1000 to 10000 nM; in test [2], 100 to 1000 nM; in test [3], 1000 to 10000 nM; in test [4] it was 1000 to 10000 nM; in test [5], < 100 nM; in test [6], < 100 nM.

Regarding `N#Cc1c(N)sc2c(F)ccc(-c3c(C(F)(F)F)cc4c(N5CC6CC(C5)O6)nc(OC[C@@]56CCCN5C[C@]5(CC5(F)F)C6)nc4c3F)c12` [Compound 365], the IC50 was 100 to 1000 nM in test [1]; 100 to 1000 nM in test [2]; 100 to 1000 nM in test [3]; 100 to 1000 nM in test [4]; < 100 nM in test [5]; < 100 nM in test [6].

On to `N#Cc1c(N)sc2c(F)ccc(-c3c(C(F)(F)F)cc4c(N5CC6CC(C5)O6)nc(OC[C@@]56CCCN5C[C@@]5(CC5(F)F)C6)nc4c3F)c12` [Compound 366], for which the IC50 in test [1] was 1000 to 10000 nM; in test [2], 100 to 1000 nM; in test [3] it was 1000 to 10000 nM; in test [4], 100 to 1000 nM; in test [5], < 100 nM; in test [6] it was < 100 nM.
